“Also recorded” adds a separate entry of the source. Ends that are not written are not given here.
Assays:
[1] = physchem
Experimental: Vaccines are prepared by solubilization of each peptide in aqueous solutions, then sterile filtration, mixing, and vialing at 600 mcg per vial.
It is then sterile-filtered. […] It is then sterile-filtered.
The solubilization regimen was difficult to establish for the 8 long peptides.
These 3 sterile solutions will be combined and will be brought up to a concentration of 600 mcg/ml of each peptide using sterile water, lactated ringer's solution or normal saline solution. The pH of the mixture will be about 8-8.50, for a concentration of 600 micrograms per ml of each peptide.

[2] = system: high-risk ovarian cancer patients; conditions: human, in vivo; cited from earlier work
[3] = Stability of peptide against alkaline hydrolysis at pH 12; format: physicochemical; conditions: pH 12, NaOH
From the text: It will be sterile-filtered.

Substance	solubility [1]	also measured
LLHLAVIGALLAVGATKVPRNQDWLGVSRQL [Peptide 6]	10 mg/mL	–
NY-ESO-179-108: long peptide, residues 79-108 of cancer-testis antigen NY-ESO-1 (GARGPESRLLEFYLAMPFATPMEAELARRS; UniProt P78358 79-108, looked up, fragment)	–	CD4 T cell responses after vaccination [2]: induces CD4 T cell responses
SMHNALHIYMDGTMSQVQGSANDPIFLLHH [Peptide 3]	–	stability (hydrolysis/degradation) of peptide [3]: stable at this pH and is not hydrolyzed or degraded; also recorded: hydrolysis is not an issue and the peptide is intact
VPLAHSSSAFTIMDQVPFSVSVSQLRALDG [Peptide 4]	20 mg/mL	–

Reference: patent publication US9345755B2, “Composition and methods for treating melanoma” (University of Virginia Patent Foundation, priority 2012, dated 2016)
